Source: publication PMC9931709, “Uphill energy transfer mechanism for photosynthesis in an Antarctic alga” (Nature Communications, 2023)
Each block holds one compound with its values, some of them ahead of it.

What was measured:
[1] = molecular target: T1, Pc-frLHC (Prasiola crispa far-red light-harvesting Chl-binding protein complex) (Prasiola crispa, UniProt C0HLU5); experiment: cryo-EM structure, […] A; biochemical pigment analysis; conditions: native pigment, pH 6.5
T1 construct: native complex purified from thylakoids of thalli harvested in Antarctica; beta-DDM; homo-undecamer, subunit about 29 kDa

[2] = molecular target: Prasiola crispa far-red light-harvesting Chl-binding protein complex (Pc-frLHC) subunit (Prasiola crispa); experiment: cryo-EM structure; single-particle cryo-EM, C11 symmetry imposed; 6 mg protein/ml in 25 mM MES pH 6.5, 0.015% β-DDM, 0.5 M betaine; 3.13 Å

T1 sequence (C0HLU5 45-307, one chain of several): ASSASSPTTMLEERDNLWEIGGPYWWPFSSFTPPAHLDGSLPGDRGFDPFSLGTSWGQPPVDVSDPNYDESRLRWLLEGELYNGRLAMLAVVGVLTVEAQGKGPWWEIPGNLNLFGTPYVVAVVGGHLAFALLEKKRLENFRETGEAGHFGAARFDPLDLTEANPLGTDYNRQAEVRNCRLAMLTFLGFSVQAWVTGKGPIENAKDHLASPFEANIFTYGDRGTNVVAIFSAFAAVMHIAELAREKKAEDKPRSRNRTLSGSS

Compound: CC(/C=C/C=C(C)/C=C/[C@@]12O[C@]1(C)C[C@@H](O)CC2(C)C)=C\C=C\C=C(C)\C=C\C=C(C)\C=C\[C@@]12O[C@]1(C)C[C@@H](O)CC2(C)C [violaxanthin]
cryo-EM structure, 3.13 A; biochemical pigment analysis ([1]; L1 site): Pc-frLHC binds only two carotenoids: violaxanthin (vio) and loroxanthin (loro)

Compound: CC1=C[C@H](O)CC(C)(C)[C@H]1/C=C/C(C)=C/C=C/C(C)=C/C=C/C=C(C)/C=C/C=C(/C=C/C1=C(C)C[C@@H](O)CC1(C)C)CO [loroxanthin]
cryo-EM structure, 3.13 A; biochemical pigment analysis ([1]; L2 site): Pc-frLHC binds only two carotenoids: violaxanthin (vio) and loroxanthin (loro)

stoichiometry N [2]: 11
Compound: Prasiola crispa far-red light-harvesting Chl-binding protein complex (Pc-frLHC) subunit (natural protein)
